Experiments:
Assay in all cases: Kinase Hotspot radiolabel assay
Format in all cases: biochemical
Settings in all cases: read-out: % Residual Activity
[1] = target: T1, CAMK2a (Homo sapiens, UniProt Q9UQM7)
T1 construct: purchased Reaction Biology Corporation (Kinase HotSpot)
Outline: (§1)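 Specificity was assessed across 369 kinases in a radioactive Hotspot assay, testing one compound concentration (1 µM). For any kinase inhibited above 90%, a Ki value was subsequently obtained.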

[2] = target: T2, EPHA7 (Homo sapiens, UniProt Q15375)
T2 construct: purchased Reaction Biology Corporation (Kinase HotSpot)
Outline: as §1

[3] = target: T3, NIM1 (Homo sapiens, UniProt Q8IY84)
T3 construct: purchased Reaction Biology Corporation (Kinase HotSpot)
Outline: as §1

[4] = target: T4, WNK1 (Homo sapiens, UniProt Q9H4A3)
T4 construct: purchased Reaction Biology Corporation (Kinase HotSpot)
Outline: as §1

[5] = target: T5, PAK1 (Homo sapiens, UniProt Q13153)
T5 construct: purchased Reaction Biology Corporation (Kinase HotSpot)
Outline: as §1

[6] = target: T6, MYLK4 (Homo sapiens, UniProt Q86YV6)
T6 construct: purchased Reaction Biology Corporation (Kinase HotSpot)
Outline: as §1

[7] = target: T7, PKCmu/PRKD1 (Homo sapiens, UniProt Q15139)
T7 construct: purchased Reaction Biology Corporation (Kinase HotSpot)
Outline: as §1

[8] = target: T8, MARK1 (Homo sapiens, UniProt Q9P0L2)
T8 construct: purchased Reaction Biology Corporation (Kinase HotSpot)
Outline: as §1

[9] = target: T9, MST1/STK4 (Homo sapiens, UniProt Q13043)
T9 construct: purchased Reaction Biology Corporation (Kinase HotSpot)
Outline: as §1

[10] = target: T10, PKCiota (Homo sapiens, UniProt P41743)
T10 construct: purchased Reaction Biology Corporation (Kinase HotSpot)
Outline: as §1

[11] = target: T11, AKT2 (Homo sapiens, UniProt P31751)
T11 construct: purchased Reaction Biology Corporation (Kinase HotSpot)
Outline: as §1

[12] = target: T12, CK1a1L (Homo sapiens, UniProt Q8N752)
T12 construct: purchased Reaction Biology Corporation (Kinase HotSpot)
Outline: as §1

[13] = target: T13, NEK4 (Homo sapiens, UniProt P51957)
T13 construct: purchased Reaction Biology Corporation (Kinase HotSpot)
Outline: as §1

[14] = target: T14, SGK1 (Homo sapiens, UniProt O00141)
T14 construct: purchased Reaction Biology Corporation (Kinase HotSpot)
Outline: as §1

[15] = target: T15, VRK2 (Homo sapiens, UniProt Q86Y07)
T15 construct: purchased Reaction Biology Corporation (Kinase HotSpot)
Outline: as §1

[16] = target: T16, MEK2 (Homo sapiens, UniProt P36507)
T16 construct: purchased Reaction Biology Corporation (Kinase HotSpot)
Outline: as §1

[17] = target: T17, PKCnu/PRKD3 (Homo sapiens, UniProt O94806)
T17 construct: purchased Reaction Biology Corporation (Kinase HotSpot)
Outline: as §1

[18] = target: T18, TRKA (Homo sapiens, UniProt P04629)
T18 construct: purchased Reaction Biology Corporation (Kinase HotSpot)
Outline: as §1

[19] = target: T19, CAMK4 (Homo sapiens, UniProt Q16566)
T19 construct: purchased Reaction Biology Corporation (Kinase HotSpot)
Outline: as §1

[20] = target: T20, EPHA8 (Homo sapiens, UniProt P29322)
T20 construct: purchased Reaction Biology Corporation (Kinase HotSpot)
Outline: as §1

[21] = target: T21, BRK (Homo sapiens, UniProt Q13882)
T21 construct: purchased Reaction Biology Corporation (Kinase HotSpot)
Outline: as §1

[22] = target: T22, PASK (Homo sapiens, UniProt Q96RG2)
T22 construct: purchased Reaction Biology Corporation (Kinase HotSpot)
Outline: as §1

[23] = target: T23, CAMKK1 (Homo sapiens, UniProt Q8N5S9)
T23 construct: purchased Reaction Biology Corporation (Kinase HotSpot)
Outline: as §1

[24] = target: T24, PKN2/PRK2 (Homo sapiens, UniProt Q16513)
T24 construct: purchased Reaction Biology Corporation (Kinase HotSpot)
Outline: as §1

[25] = target: T25, CAMK1b (Homo sapiens, UniProt Q6P2M8)
T25 construct: purchased Reaction Biology Corporation (Kinase HotSpot)
Outline: as §1

[26] = target: T26, p70S6K/RPS6KB1 (Homo sapiens, UniProt P23443)
T26 construct: purchased Reaction Biology Corporation (Kinase HotSpot)
Outline: as §1

[27] = target: T27, NEK3 (Homo sapiens, UniProt P51956)
T27 construct: purchased Reaction Biology Corporation (Kinase HotSpot)
Outline: as §1

[28] = target: T28, FRK/PTK5 (Homo sapiens, UniProt P42685)
T28 construct: purchased Reaction Biology Corporation (Kinase HotSpot)
Outline: as §1

[29] = target: T29, ZAK/MLTK (Homo sapiens, UniProt Q9NYL2)
T29 construct: purchased Reaction Biology Corporation (Kinase HotSpot)
Outline: as §1

[30] = target: T30, GRK1 (Homo sapiens, UniProt Q15835)
T30 construct: purchased Reaction Biology Corporation (Kinase HotSpot)
Outline: as §1

T30 sequence (Q15835 whole entry): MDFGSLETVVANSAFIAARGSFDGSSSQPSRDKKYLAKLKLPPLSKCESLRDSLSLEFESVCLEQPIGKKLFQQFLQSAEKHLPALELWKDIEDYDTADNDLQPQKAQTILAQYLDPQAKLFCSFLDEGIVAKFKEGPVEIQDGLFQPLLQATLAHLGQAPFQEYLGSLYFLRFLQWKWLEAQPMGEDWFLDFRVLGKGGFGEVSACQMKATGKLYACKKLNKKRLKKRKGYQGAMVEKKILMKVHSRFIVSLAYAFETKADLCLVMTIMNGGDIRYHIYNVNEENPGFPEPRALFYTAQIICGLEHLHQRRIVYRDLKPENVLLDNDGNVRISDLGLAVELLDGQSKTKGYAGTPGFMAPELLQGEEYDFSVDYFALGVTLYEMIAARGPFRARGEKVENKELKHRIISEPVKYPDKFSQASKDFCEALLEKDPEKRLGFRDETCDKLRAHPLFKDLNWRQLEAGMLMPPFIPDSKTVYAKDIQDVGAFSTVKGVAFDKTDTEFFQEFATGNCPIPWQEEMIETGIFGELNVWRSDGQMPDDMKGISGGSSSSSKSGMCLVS
T12 sequence (Q8N752 whole entry): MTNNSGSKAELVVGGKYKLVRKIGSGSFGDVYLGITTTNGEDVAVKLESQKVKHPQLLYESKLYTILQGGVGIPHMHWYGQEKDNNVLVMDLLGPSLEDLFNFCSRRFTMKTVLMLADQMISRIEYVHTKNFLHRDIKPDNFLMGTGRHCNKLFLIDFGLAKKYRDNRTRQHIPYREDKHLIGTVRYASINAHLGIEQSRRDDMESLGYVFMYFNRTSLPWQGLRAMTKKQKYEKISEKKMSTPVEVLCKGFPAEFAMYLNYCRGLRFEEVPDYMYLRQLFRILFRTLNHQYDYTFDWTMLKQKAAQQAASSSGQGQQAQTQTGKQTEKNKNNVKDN
T11 sequence (P31751 whole entry): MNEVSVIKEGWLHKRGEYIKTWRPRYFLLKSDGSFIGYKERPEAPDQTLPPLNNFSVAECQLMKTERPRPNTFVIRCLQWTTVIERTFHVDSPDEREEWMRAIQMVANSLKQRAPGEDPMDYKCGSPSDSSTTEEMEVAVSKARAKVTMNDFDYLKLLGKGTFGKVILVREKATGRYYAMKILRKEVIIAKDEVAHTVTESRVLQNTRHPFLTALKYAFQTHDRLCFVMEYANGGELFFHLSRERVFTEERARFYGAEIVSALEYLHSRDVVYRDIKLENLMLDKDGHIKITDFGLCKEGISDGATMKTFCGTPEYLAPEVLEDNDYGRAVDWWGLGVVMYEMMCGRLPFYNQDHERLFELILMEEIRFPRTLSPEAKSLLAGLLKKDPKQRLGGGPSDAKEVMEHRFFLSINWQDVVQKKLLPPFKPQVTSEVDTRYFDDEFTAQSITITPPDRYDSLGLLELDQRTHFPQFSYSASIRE
T4 sequence (Q9H4A3 whole entry): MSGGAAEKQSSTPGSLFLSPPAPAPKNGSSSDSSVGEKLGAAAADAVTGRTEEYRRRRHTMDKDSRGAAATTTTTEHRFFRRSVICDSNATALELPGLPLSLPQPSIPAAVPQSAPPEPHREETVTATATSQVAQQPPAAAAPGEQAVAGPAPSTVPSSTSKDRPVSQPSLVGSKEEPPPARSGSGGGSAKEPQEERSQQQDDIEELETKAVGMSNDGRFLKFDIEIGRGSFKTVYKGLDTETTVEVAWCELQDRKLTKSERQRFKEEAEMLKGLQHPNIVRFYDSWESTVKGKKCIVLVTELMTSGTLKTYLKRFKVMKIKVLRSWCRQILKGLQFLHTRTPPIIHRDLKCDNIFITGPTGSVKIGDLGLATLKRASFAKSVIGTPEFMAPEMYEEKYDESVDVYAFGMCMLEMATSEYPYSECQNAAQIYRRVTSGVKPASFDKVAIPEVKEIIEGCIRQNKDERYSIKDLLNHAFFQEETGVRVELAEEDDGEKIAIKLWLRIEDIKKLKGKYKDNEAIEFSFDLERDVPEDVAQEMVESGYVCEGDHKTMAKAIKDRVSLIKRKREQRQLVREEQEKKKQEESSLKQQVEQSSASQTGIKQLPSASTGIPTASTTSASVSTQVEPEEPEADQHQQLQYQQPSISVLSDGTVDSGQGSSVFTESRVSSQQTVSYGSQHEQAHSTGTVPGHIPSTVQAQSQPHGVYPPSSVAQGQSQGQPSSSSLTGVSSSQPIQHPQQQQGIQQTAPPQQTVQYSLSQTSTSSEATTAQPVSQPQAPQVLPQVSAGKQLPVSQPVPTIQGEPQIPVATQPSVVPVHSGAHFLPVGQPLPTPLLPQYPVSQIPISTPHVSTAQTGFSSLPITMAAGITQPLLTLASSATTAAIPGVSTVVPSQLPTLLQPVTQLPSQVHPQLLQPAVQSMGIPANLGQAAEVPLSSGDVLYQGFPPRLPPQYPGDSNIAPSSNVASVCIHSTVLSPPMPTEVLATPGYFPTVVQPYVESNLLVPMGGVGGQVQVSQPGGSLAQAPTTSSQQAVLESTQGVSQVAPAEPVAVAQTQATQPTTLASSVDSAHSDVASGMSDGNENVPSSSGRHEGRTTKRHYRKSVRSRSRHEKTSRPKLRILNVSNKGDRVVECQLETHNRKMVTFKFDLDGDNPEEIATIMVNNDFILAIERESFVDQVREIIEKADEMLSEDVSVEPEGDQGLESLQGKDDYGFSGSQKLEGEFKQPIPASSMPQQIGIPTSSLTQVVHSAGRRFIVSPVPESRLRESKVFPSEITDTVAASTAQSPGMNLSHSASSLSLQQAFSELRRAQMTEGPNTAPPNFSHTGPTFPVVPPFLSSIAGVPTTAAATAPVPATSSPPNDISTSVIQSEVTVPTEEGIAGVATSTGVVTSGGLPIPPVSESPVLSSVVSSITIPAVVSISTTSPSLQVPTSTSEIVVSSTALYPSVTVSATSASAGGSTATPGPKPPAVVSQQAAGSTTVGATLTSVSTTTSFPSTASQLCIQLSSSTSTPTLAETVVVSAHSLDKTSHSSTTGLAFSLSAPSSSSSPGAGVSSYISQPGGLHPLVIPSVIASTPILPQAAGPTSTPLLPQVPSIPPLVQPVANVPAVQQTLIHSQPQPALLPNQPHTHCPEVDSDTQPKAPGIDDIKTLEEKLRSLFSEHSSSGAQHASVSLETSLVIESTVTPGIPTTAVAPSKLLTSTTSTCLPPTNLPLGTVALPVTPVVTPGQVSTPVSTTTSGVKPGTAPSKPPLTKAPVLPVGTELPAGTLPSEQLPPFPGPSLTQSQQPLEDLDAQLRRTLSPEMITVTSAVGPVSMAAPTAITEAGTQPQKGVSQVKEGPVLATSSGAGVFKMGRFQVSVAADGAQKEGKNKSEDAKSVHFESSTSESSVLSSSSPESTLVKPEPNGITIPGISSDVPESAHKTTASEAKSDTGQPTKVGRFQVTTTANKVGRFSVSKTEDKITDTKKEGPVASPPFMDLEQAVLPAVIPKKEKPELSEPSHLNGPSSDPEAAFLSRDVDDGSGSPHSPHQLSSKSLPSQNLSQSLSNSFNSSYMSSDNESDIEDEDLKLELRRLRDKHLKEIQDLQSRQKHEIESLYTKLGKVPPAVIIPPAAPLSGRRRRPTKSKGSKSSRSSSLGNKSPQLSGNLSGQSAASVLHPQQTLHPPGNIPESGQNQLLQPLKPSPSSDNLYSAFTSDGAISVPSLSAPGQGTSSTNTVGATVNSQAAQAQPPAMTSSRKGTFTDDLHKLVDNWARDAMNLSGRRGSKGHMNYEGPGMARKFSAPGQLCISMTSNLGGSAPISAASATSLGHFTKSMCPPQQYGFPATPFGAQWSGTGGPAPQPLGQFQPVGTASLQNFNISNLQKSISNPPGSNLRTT
T3 sequence (Q8IY84 whole entry): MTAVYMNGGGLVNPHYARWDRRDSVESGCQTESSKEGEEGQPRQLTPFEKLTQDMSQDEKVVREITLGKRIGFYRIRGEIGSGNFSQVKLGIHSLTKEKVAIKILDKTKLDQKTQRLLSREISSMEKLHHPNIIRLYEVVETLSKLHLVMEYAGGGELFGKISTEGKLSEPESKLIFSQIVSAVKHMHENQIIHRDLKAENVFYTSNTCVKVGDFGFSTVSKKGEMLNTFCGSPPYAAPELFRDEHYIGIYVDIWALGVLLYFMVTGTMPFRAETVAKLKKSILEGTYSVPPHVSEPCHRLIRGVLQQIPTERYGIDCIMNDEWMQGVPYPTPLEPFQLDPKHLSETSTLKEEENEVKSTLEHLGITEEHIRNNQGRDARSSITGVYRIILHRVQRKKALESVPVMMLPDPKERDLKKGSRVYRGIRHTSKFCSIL
T28 sequence (P42685 whole entry): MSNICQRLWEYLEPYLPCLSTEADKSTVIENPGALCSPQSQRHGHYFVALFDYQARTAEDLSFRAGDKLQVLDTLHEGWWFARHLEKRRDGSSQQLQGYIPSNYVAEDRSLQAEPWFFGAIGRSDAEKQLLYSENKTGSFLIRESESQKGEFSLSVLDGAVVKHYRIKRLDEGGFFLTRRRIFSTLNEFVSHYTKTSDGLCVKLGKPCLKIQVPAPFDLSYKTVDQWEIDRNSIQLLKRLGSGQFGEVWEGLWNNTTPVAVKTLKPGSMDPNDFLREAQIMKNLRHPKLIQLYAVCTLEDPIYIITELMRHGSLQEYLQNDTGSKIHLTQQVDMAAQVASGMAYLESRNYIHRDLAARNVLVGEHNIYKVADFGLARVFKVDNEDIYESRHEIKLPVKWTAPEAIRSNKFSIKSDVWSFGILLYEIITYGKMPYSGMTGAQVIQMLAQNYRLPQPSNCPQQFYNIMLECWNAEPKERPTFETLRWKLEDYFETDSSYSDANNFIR
T25 sequence (Q6P2M8 whole entry): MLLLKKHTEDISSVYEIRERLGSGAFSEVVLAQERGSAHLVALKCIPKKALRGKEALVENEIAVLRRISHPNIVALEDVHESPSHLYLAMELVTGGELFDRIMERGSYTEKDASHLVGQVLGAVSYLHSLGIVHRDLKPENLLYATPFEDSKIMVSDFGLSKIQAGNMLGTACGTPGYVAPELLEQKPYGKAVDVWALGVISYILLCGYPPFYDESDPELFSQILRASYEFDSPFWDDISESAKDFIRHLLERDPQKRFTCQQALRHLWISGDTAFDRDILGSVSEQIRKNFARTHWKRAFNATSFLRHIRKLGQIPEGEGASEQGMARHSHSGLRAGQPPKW

## Cc1cnc(N[C@H]2CC[C@H](N)CC2)nc1-c1cnc2ccc(-c3ccccc3)cn12 [CDDD11-8]
[1]
  remaining activity at 1 µM: 20.3%
[2]
  remaining activity at 1 µM: 105%
[3]
  remaining activity at 1 µM: 89.9%
[4]
  remaining activity at 1 µM: 90%
[5]
  remaining activity at 1 µM: 106%
[6]
  remaining activity at 1 µM: 11.5%
[7]
  remaining activity at 1 µM: 53.1%
[8]
  remaining activity at 1 µM: 46.6%
[9]
  remaining activity at 1 µM: 8.89%
[10]
  remaining activity at 1 µM: 88.8%
[11]
  remaining activity at 1 µM: 116%
[12]
  remaining activity at 1 µM: 90%
[13]
  remaining activity at 1 µM: 78.8%
[14]
  remaining activity at 1 µM: 95.4%
[15]
  remaining activity at 1 µM: 35.7%
[16]
  remaining activity at 1 µM: 79.1%
[17]
  remaining activity at 1 µM: 35.1%
[18]
  remaining activity at 1 µM: 14.2%
[19]
  remaining activity at 1 µM: 97.3%
[20]
  remaining activity at 1 µM: 83.5%
[21]
  remaining activity at 1 µM: 87.4%
[22]
  remaining activity at 1 µM: 43.1%
[23]
  remaining activity at 1 µM: 76.5%
[24]
  remaining activity at 1 µM: 88.3%
[25]
  remaining activity at 1 µM: 96.1%
[26]
  remaining activity at 1 µM: 94.5%
[27]
  remaining activity at 1 µM: 92.8%
[28]
  remaining activity at 1 µM: 97.1%
[29]
  remaining activity at 1 µM: 83.3%
[30]
  remaining activity at 1 µM: 65%
